Experimental data taken from PubChem BioAssay AID256 (DTP/NCI, 2004).
Several values for one entry are separate records, joined by “and”; a condition that tells them apart may be missing. Equal entries are not always repeated. Inconclusive results and toxic doses are left out.

Tested on: CD2F1 mice, L1210 leukemia ip, survival T/C
Experiment: NCI In Vivo Anticancer Drug Screen. Data for tumor model L1210 Leukemia (intraperitoneal) in CD2F1 (CDF1) mice
Conditions: higher = longer survival
In short: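 Vehicle-treated tumor-bearing mice served as controls (C) for compound-treated mice (T). Reported figure is T divided by C.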

[1] = endpoint: mean survival time, dose: 100.0 mg/kg/injection, schedule: Q04DX002 (ip), vehicle: saline with Tween-80
[2] = endpoint: mean survival time, dose: 100.0 mg/kg/injection, schedule: Q01DX001 (ip), vehicle: saline with Tween-80
[3] = endpoint: mean survival time, dose: 100.0 mg/kg/injection, schedule: Q04DX003 (ip), vehicle: saline with Tween-80
[4] = endpoint: mean survival time, dose: 200.0 mg/kg/injection, schedule: Q04DX003 (ip), vehicle: saline with Tween-80
[5] = endpoint: mean survival time, dose: 400.0 mg/kg/injection, schedule: Q01DX001 (ip), vehicle: saline with Tween-80
[6] = endpoint: mean survival time, dose: 400.0 mg/kg/injection, schedule: Q04DX003 (ip), vehicle: saline with Tween-80
[7] = endpoint: mean survival time, dose: 75.0 mg/kg/injection, schedule: Q01DX001 (ip), vehicle: other
[8] = endpoint: mean survival time, dose: 150.0 mg/kg/injection, schedule: Q01DX001 (ip), vehicle: other
[9] = endpoint: mean survival time, dose: 300.0 mg/kg/injection, schedule: Q01DX001 (ip), vehicle: other

## CCC[N+](CCC)(CCC)CCC.N#CC(C#N)=C([SH2+])[SH2+].N#CC(C#N)=C([SH2+])[SH2+].N#CC(C#N)=C([SH2+])[SH2+].[Fe+3]
endpoint: mean survival time, dose: 25.0 mg/kg/injection, schedule: Q04DX003 (ip), vehicle: acetone
  T/C: 103 % of control
endpoint: mean survival time, dose: 50.0 mg/kg/injection, schedule: Q04DX003 (ip), vehicle: acetone
  T/C: 97 % of control

## O=C(O)C(=O)O.[La]
endpoint: mean survival time, dose: 200.0 mg/kg/injection, schedule: Q01DX009 (ip), vehicle: other
  T/C: 98 % of control
endpoint: mean survival time, dose: 400.0 mg/kg/injection, schedule: Q01DX009 (ip), vehicle: other
  T/C: 96 % of control

## S=C=Nc1ccccn1
[1]
  T/C: 86 % of control
endpoint: mean survival time, dose: 200.0 mg/kg/injection, schedule: Q04DX002 (ip), vehicle: saline with Tween-80
  T/C: 101 % of control

## O=C1C(Cl)=C(Cl)C(=O)c2ccccc21
endpoint: mean survival time, dose: 5.0 mg/kg/injection, schedule: Q04DX003 (ip), vehicle: saline with Tween-80
  T/C: 98 % of control
endpoint: mean survival time, dose: 10.0 mg/kg/injection, schedule: Q04DX003 (ip), vehicle: saline with Tween-80
  T/C: 93 % of control
endpoint: mean survival time, dose: 20.0 mg/kg/injection, schedule: Q04DX003 (ip), vehicle: saline with Tween-80
  T/C: 101 % of control

## CCC(=O)c1cc2c(c3c1CCCC3)CCCC2
endpoint: mean survival time, dose: 25.0 mg/kg/injection, schedule: Q01DX009 (ip), vehicle: other
  T/C: 104 % of control
endpoint: mean survival time, dose: 50.0 mg/kg/injection, schedule: Q01DX009 (ip), vehicle: other
  T/C: 98 % of control
endpoint: mean survival time, dose: 100.0 mg/kg/injection, schedule: Q01DX009 (ip), vehicle: other
  T/C: 104 % of control

## CCOC(=O)CCC(NC(=O)c1cccc(N(C)C=O)c1)C(=O)OCC (centres undefined)
[2]
  T/C: 110 % of control
[3]
  T/C: 100 % of control
endpoint: mean survival time, dose: 200.0 mg/kg/injection, schedule: Q01DX001 (ip), vehicle: saline with Tween-80
  T/C: 110 % of control
[4]
  T/C: 100 % of control
[5]
  T/C: 113 % of control
[6]
  T/C: 98 % of control

## O=Nc1sc2ccccc2c1O
[3]
  T/C: 104 % of control
[4]
  T/C: 96 % of control
[6]
  T/C: 96 % of control

## CC(C)OC(=S)S.[Pt]
endpoint: mean survival time, dose: 11.3 mg/kg/injection, schedule: Q04DX003 (ip), vehicle: saline with Tween-80
  T/C: 89 % of control
endpoint: mean survival time, dose: 22.5 mg/kg/injection, schedule: Q04DX003 (ip), vehicle: saline with Tween-80
  T/C: 97 % of control
endpoint: mean survival time, dose: 45.0 mg/kg/injection, schedule: Q04DX003 (ip), vehicle: saline with Tween-80
  T/C: 101 % of control
endpoint: mean survival time, dose: 90.0 mg/kg/injection, schedule: Q04DX003 (ip), vehicle: saline with Tween-80
  T/C: 97 % of control
endpoint: mean survival time, dose: 180.0 mg/kg/injection, schedule: Q04DX003 (ip), vehicle: saline with Tween-80
  T/C: 95 % of control

## NC(N)=N/C(N)=N\c1cnc([N+](=O)[O-])s1
endpoint: mean survival time, dose: 75.0 mg/kg/injection, schedule: Q01DX001 (ip), vehicle: saline
  T/C: 96 % of control
endpoint: mean survival time, dose: 150.0 mg/kg/injection, schedule: Q01DX001 (ip), vehicle: saline
  T/C: 101 % of control
endpoint: mean survival time, dose: 300.0 mg/kg/injection, schedule: Q01DX001 (ip), vehicle: saline
  T/C: 93 % of control

## CCC1CC(=O)C2Nc3ccccc3C2C1 (centres undefined)
[2]
  T/C: 88 % of control
[5]
  T/C: 86 % of control

## CCC(=O)N(C)[C@@H](C)C(=O)O[C@H]1CC(=O)N(C)c2cc(cc(OC)c2Cl)C/C(C)=C/C=C[C@@H](OC)[C@@]2(O)C[C@H](OC(=O)N2)[C@@H](C)[C@@H]2O[C@@]12C
endpoint: mean survival time, dose: 1.3 micrograms/kg/injection, schedule: Q01DX009 (ip), vehicle: saline + alcohol
  T/C: 110 % of control
endpoint: mean survival time, dose: 2.5 micrograms/kg/injection, schedule: Q01DX009 (ip), vehicle: saline + alcohol
  T/C: 119 % of control
endpoint: mean survival time, dose: 2.5 micrograms/kg/injection, schedule: Q01DX009 (ip), vehicle: saline
  T/C: 109 % of control
endpoint: mean survival time, dose: 3.8 micrograms/kg/injection, schedule: Q01DX009 (ip), vehicle: saline + alcohol
  T/C: 120 % of control
endpoint: mean survival time, dose: 5.0 micrograms/kg/injection, schedule: Q01DX009 (ip), vehicle: saline + alcohol
  T/C: 117 % of control and 111 % of control
endpoint: mean survival time, dose: 5.0 micrograms/kg/injection, schedule: Q01DX009 (ip), vehicle: saline
  T/C: 111 % of control
endpoint: mean survival time, dose: 7.5 micrograms/kg/injection, schedule: Q01DX009 (ip), vehicle: saline + alcohol
  T/C: 106 % of control
endpoint: mean survival time, dose: 10.0 micrograms/kg/injection, schedule: Q01DX009 (ip), vehicle: saline + alcohol
  T/C: 115 % of control
endpoint: mean survival time, dose: 10.0 micrograms/kg/injection, schedule: Q01DX009 (ip), vehicle: saline
  T/C: 111 % of control
endpoint: mean survival time, dose: 15.0 micrograms/kg/injection, schedule: Q01DX009 (ip), vehicle: saline + alcohol
  T/C: 112 % of control
endpoint: mean survival time, dose: 20.0 micrograms/kg/injection, schedule: Q01DX009 (ip), vehicle: saline
  T/C: 111 % of control
endpoint: mean survival time, dose: 30.0 micrograms/kg/injection, schedule: Q01DX009 (ip), vehicle: saline + alcohol
  T/C: 122 % of control
endpoint: mean survival time, dose: 30.0 micrograms/kg/injection, schedule: Q01DX009 (ip), vehicle: saline
  T/C: 117 % of control
endpoint: mean survival time, dose: 60.0 micrograms/kg/injection, schedule: Q01DX009 (ip), vehicle: saline + alcohol
  T/C: 114 % of control

## CN(C)Cc1cc(O)cc(CN(C)C)c1O
[7]
  T/C: 98 % of control
[8]
  T/C: 96 % of control
[9]
  T/C: 98 % of control

## C=CCOP(=O)(OCC=C)C(Cl)(Cl)Cl
[7]
  T/C: 109 % of control
[8]
  T/C: 97 % of control
[9]
  T/C: 109 % of control

## CC(C)NC(=O)CCCCN(C(=O)OCc1ccccc1)N(C)C(=O)OCc1ccccc1
endpoint: mean survival time, dose: 50.0 mg/kg/injection, schedule: Q04DX003 (ip), vehicle: Klucel (hydroxypropylcellulose) (HPC)
  T/C: 100 % of control
endpoint: mean survival time, dose: 100.0 mg/kg/injection, schedule: Q04DX003 (ip), vehicle: Klucel (hydroxypropylcellulose) (HPC)
  T/C: 91 % of control
endpoint: mean survival time, dose: 200.0 mg/kg/injection, schedule: Q04DX003 (ip), vehicle: Klucel (hydroxypropylcellulose) (HPC)
  T/C: 106 % of control
endpoint: mean survival time, dose: 400.0 mg/kg/injection, schedule: Q04DX003 (ip), vehicle: Klucel (hydroxypropylcellulose) (HPC)
  T/C: 95 % of control

## COC(=O)c1ccc(C)cc1C(=O)OC
[3]
  T/C: 97 % of control
[4]
  T/C: 92 % of control

## O=C1c2cccc(O)c2C(=O)c2c(O)cccc21
endpoint: mean survival time, dose: 100.0 mg/kg/injection, schedule: Q01DX001 (ip), vehicle: saline
  T/C: 100 % of control
endpoint: mean survival time, dose: 200.0 mg/kg/injection, schedule: Q01DX001 (ip), vehicle: saline
  T/C: 102 % of control
endpoint: mean survival time, dose: 400.0 mg/kg/injection, schedule: Q01DX001 (ip), vehicle: saline
  T/C: 100 % of control

## COC(=O)N1CC=CCN1C(=O)OC
endpoint: mean survival time, dose: 100.0 mg/kg/injection, schedule: Q01DX009 (ip), vehicle: saline
  T/C: 105 % of control
endpoint: mean survival time, dose: 200.0 mg/kg/injection, schedule: Q01DX009 (ip), vehicle: saline
  T/C: 108 % of control
endpoint: mean survival time, dose: 400.0 mg/kg/injection, schedule: Q01DX009 (ip), vehicle: saline
  T/C: 102 % of control

## CC1(C)CC(=O)C=C(OCCc2ccccc2)C1
endpoint: mean survival time, dose: 100.0 mg/kg/injection, schedule: Q01DX009 (ip), vehicle: saline with Tween-80
  T/C: 102 % of control
endpoint: mean survival time, dose: 200.0 mg/kg/injection, schedule: Q01DX009 (ip), vehicle: saline with Tween-80
  T/C: 102 % of control
endpoint: mean survival time, dose: 400.0 mg/kg/injection, schedule: Q01DX009 (ip), vehicle: saline with Tween-80
  T/C: 102 % of control

## Cc1ccc(S(=O)(=O)OCC2C3CCC(C3)C2COS(=O)(=O)c2ccc(C)cc2)cc1 (centres undefined)
endpoint: mean survival time, dose: 25.0 mg/kg/injection, schedule: Q04DX002 (ip), vehicle: saline with Tween-80
  T/C: 95 % of control
endpoint: mean survival time, dose: 50.0 mg/kg/injection, schedule: Q04DX002 (ip), vehicle: saline with Tween-80
  T/C: 95 % of control
[1]
  T/C: 95 % of control and 98 % of control

## Nc1ncnc2c1c1c(=O)[nH]c(=O)[nH]c1n2C1OC(CO)C(O)C1O (centres undefined)
endpoint: mean survival time, dose: 12.5 mg/kg/injection, schedule: Q01DX005 (ip), vehicle: distilled water + Tween-80
  T/C: 111 % of control
endpoint: mean survival time, dose: 25.0 mg/kg/injection, schedule: Q01DX005 (ip), vehicle: distilled water + Tween-80
  T/C: 116 % of control
endpoint: mean survival time, dose: 50.0 mg/kg/injection, schedule: Q01DX005 (ip), vehicle: distilled water + Tween-80
  T/C: 119 % of control
endpoint: mean survival time, dose: 100.0 mg/kg/injection, schedule: Q01DX005 (ip), vehicle: distilled water + Tween-80
  T/C: 158 % of control
endpoint: mean survival time, dose: 200.0 mg/kg/injection, schedule: Q01DX005 (ip), vehicle: distilled water + Tween-80
  T/C: 172 % of control
endpoint: mean survival time, dose: 400.0 mg/kg/injection, schedule: Q01DX005 (ip), vehicle: distilled water + Tween-80
  T/C: 208 % of control
endpoint: median survival time, dose: 25.0 mg/kg/injection, schedule: Q01DX009 (ip), vehicle: distilled water + Tween-80
  T/C: 114 % of control
endpoint: median survival time, dose: 50.0 mg/kg/injection, schedule: Q01DX009 (ip), vehicle: distilled water + Tween-80
  T/C: 115 % of control and 109 % of control
endpoint: median survival time, dose: 100.0 mg/kg/injection, schedule: Q01DX009 (ip), vehicle: distilled water + Tween-80
  T/C: 121 % of control and 110 % of control
endpoint: median survival time, dose: 400.0 mg/kg/injection, schedule: Q01DX009 (ip), vehicle: distilled water + Tween-80
  T/C: 105 % of control
